This assay concerns convulsions in animal models of medically refractory epilepsy. Put plainly: rodent models of medically refractory epilepsy (FIG. 12). The assay is classed as in vivo. The conditions noted are these: multiple rodent models.

Results on one compound are retold here after patent publication US12357610B2, “Aryl-substituted acetamide and pyrrolidin-2-one derivatives and their use for the treatment of seizures” (University of Houston System, priority 2017, dated 2025).

SMILES strings stand for the structures.

In the case of `CCC1(c2ccccc2)CCNC1=O` (racemic) [3-ethyl-3-phenylpyrrolidin-2-one], the “activity in preventing convulsions in animal models of medically refractory epilepsy” value was “active”.
